Test results from patent US10294202B2, “Pyrrolidinones as herbicides” (FMC Corporation, priority 2013, dated 2019).

What was measured:
sunflower = experiment: Test C pre-/postemergence herbicide test; format: in vivo, Helianthus annuus; conditions: Preemergence
Excerpt: Seeds of plant species selected from blackgrass (Alopecurus myosuroides), ryegrass, Italian (Italian ryegrass, Lolium multiflorum), wheat (winter wheat, Triticum aestivum), galium (catchweed bedstraw, Galium aparine), corn (Zea mays), crabgrass, large (large crabgrass, Digitaria sanguinalis), foxtail, giant (giant foxtail, Setaria faberii), johnsongrass (Sorghum halepense), lambsquarters (Chenopodium album), morningglory (Ipomoea coccinea), nutsedge, yellow (yellow nutsedge, Cyperus esculentus), pigweed (Amaranthus retroflexus), ragweed (common ragweed, Ambrosia elatior), soybean (Glycine max), barnyardgrass (Echinochloa crus-galli), oilseed rape (Brassica napus), waterhemp (common waterhemp, Amaranthus rudis), kochia (Kochia scoparia), oat, wild (wild oat, Avena fatua), surinam grass (Brachiaria decumbens), foxtail, green (green foxtail, Setaria viridis), goosegrass (Eleusine indica), bromegrass, downy (downy bromegrass, Bromus tectorum), nightshade (eastern black nightshade, Solanum ptycanthum), cocklebur (common cocklebur, Xanthium strumarium), cupgrass, woolly (woolly cupgrass, Eriochloa villosa), bermudagrass (Cynodon dactylon), sunflower, (common oilseed sunflower, Helianthus annuus), Russian thistle (Salsola kali) and velvetleaf (Abutilon theophrasti) were planted into a blend of loam soil and sand and treated preemergence with test chemicals formulated in a non-phytotoxic solvent mixture which included a surfactant. At the same time, plants selected from these crop and weed species and also barley (winter barley, Hordeum vulgare), […]), chickweed (common chickweed, Stellaria media), deadnettle (henbit deadnettle, Lamium amplexicaule), and canarygrass (littleseed canarygrass, Phalaris minor) were planted in pots containing Redi-Earth® planting medium (Scotts Company, 14111 Scottslawn Road, Marysville, Ohio 43041) comprising spaghnum peat moss, vermiculite, wetting agent and starter nutrients and treated with postemergence applications of test chemicals formulated in the same manner. Plants ranged in height from 2 to 18 cm (1- to 4-leaf stage) for postemergence treatments. Treated plants and controls were maintained in a greenhouse for 13 to 15 days, after which time all species were compared to controls and visually evaluated. Plant response ratings, summarized in Table C, are based on a scale of 0 to 100 where 0 is no effect and 100 is complete control. A dash (-) response means no test result.

chamomile = experiment: Test D pre-/postemergence herbicide test; format: in vivo, Matricaria inodora; conditions: for Plant response rating: Chamomile, scale 0 to 100; for Plant response rating, Chamomile: scale 0 to 100 (0 no effect, 100 complete control)
Excerpt: Seeds of plant species selected from bluegrass (annual bluegrass, Poa annua), blackgrass (Alopecurus myosuroides), canarygrass (littleseed canarygrass, Phalaris minor), chickweed (common chickweed, Stellaria media), galium (catchweed bedstraw, Galium aparine), bromegrass, downy (downy bromegrass, Bromus tectorum), field poppy (Papaver rhoeas), field violet (Viola arvensis), foxtail, green (green foxtail, Setaria viridis), deadnettle (henbit deadnettle, Lamium amplexicaule), ryegrass, Italian (Italian ryegrass, Lolium multiflorum), kochia (Kochia scoparia), lambsquarters (Chenopodium album), oilseed rape (Brassica napus), pigweed (Amaranthus retroflexus), chamomile (scentless chamomile, Matricaria inodora), Russian thistle (Salsola kali), speedwell (bird's-eye speedwell, Veronica persica), barley, spring (spring barley, Hordeum vulgare), wheat, spring (spring wheat, Triticum aestivum), buckwheat, wild (wild buckwheat, Polygonum convolvulus), mustard, wild (wild mustard, Sinapis arvensis), oat, wild (wild oat, Avena fatua), radish, wild (wild radish, Raphanus raphanistrum), […]), barley, winter (winter barley, Hordeum vulgare), and wheat, winter (winter wheat, Triticum aestivum) were planted into a silt loam soil and treated preemergence with test chemicals formulated in a non-phytotoxic solvent mixture which included a surfactant. At the same time, these species were planted in pots containing Redi-Earth® planting medium (Scotts Company, 14111 Scottslawn Road, Marysville, Ohio 43041) comprising spaghnum peat moss, vermiculite, wetting agent and starter nutrients and treated with postemergence applications of the test chemicals formulated in the same manner. Plants ranged in height from 2 to 18 cm (1- to 4-leaf stage). Treated plants and controls were maintained in a controlled growth environment for 7 to 21 days after which time all species were compared to controls and visually evaluated. Plant response ratings, summarized in Table D, are based on a scale of 0 to 100 where 0 is no effect and 100 is complete control. A dash (-) response means no test result.

barnyardgrass = experiment: Test E preemergence herbicide test; format: in vivo, Echinochloa crus-galli; parameters: key: 0 = no effect, 100 = complete control
Procedure, shortened: (§1)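 Visual injury rating, 0 (no effect) to 100 (complete control), versus controls at 21 days in greenhouse. Preemergence application to seeds planted in silt loam; compound formulated in non-phytotoxic solvent mix plus surfactant.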

morningglory = experiment: Test E preemergence herbicide test; format: in vivo, Ipomoea coccinea; parameters: key: 0 = no effect, 100 = complete control
Procedure, shortened: as §1

oilseed rape = experiment: Test D pre-/postemergence herbicide test; format: in vivo, Brassica napus; conditions: for Plant response rating: Postemergence, Oilseed Rape, scale 0 to 100; for Plant response rating, Oilseed Rape: Preemergence, scale 0 to 100 (0 no effect, 100 complete control)
Procedure, shortened: (§2)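 Postemergence sprays were made on plants at the 1- to 4-leaf stage in peat-based medium, and preemergence sprays on seeds planted in silt loam. The formulation was a non-phytotoxic solvent mixture containing surfactant. Plants were compared with controls after 7 to 21 days and rated visually on a 0–100 scale.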

kochia = experiment: Test D pre-/postemergence herbicide test; format: in vivo, Kochia scoparia; conditions: for Plant response rating: Kochia, scale 0 to 100; for Plant response rating, Kochia: scale 0 to 100 (0 no effect, 100 complete control)
Procedure, shortened: as §2

[1] = 125 g ai/ha, scale 0 to 100 (0 no effect, 100 complete control)

## O=C1NCC(c2ccc(F)c(Cl)c2)C1C(=O)Nc1ccccc1F (stereo not shown) [Compound 60]
sunflower; 62 g ai/ha, scale 0 to 100
  Plant response rating, Sunflower: 0
sunflower; [1]
  Plant response rating, Sunflower: 0

## O=C1NCC(c2cc(F)c(F)c(F)c2)C1C(=O)Nc1cccc(F)c1F (stereo not shown) [Compound 48]
sunflower; 62 g ai/ha, scale 0 to 100
  Plant response rating, Sunflower: 0
sunflower; [1]
  Plant response rating, Sunflower: 0
sunflower; 16 g ai/ha, scale 0 to 100
  Plant response rating, Sunflower: 0

## O=C1NCC(c2ccc(C(F)(F)F)cc2)C1C(=O)Nc1cccc(F)c1F (stereo not shown) [Compound 80, N-(2,3-difluorophenyl)-2-oxo-4-[4-(trifluoromethyl)phenyl]-3-pyrrolidinecarboxamide]
chamomile; Postemergence, 31 g ai/ha
  Plant response rating: 20
chamomile; Postemergence, 62 g ai/ha
  Plant response rating: 30
chamomile; Postemergence, 125 g ai/ha
  Plant response rating: 35
chamomile; Postemergence, 250 g ai/ha
  Plant response rating: 50
chamomile; Preemergence, 62 g ai/ha
  Plant response rating, Chamomile: 80
chamomile; Preemergence, 31 g ai/ha
  Plant response rating, Chamomile: 80
chamomile; Preemergence, 125 g ai/ha
  Plant response rating: 80
chamomile; Preemergence, 250 g ai/ha
  Plant response rating: 85
barnyardgrass; 16 g ai/ha
  Plant response rating, Barnyardgrass: 0
barnyardgrass; 31 g ai/ha
  Plant response rating, Barnyardgrass: 20
barnyardgrass; 62 g ai/ha
  Plant response rating, Barnyardgrass: 50
barnyardgrass; 125 g ai/ha
  Plant response rating, Barnyardgrass: 75
barnyardgrass; 250 g ai/ha
  Plant response rating, Barnyardgrass: 80
morningglory; 16 g ai/ha
  Plant response rating, Morningglory: 0
morningglory; 31 g ai/ha
  Plant response rating, Morningglory: 0
morningglory; 62 g ai/ha
  Plant response rating, Morningglory: 0
morningglory; 125 g ai/ha
  Plant response rating, Morningglory: 20
morningglory; 250 g ai/ha
  Plant response rating, Morningglory: 40
Oilseed rape; 31 g ai/ha
  Plant response rating: 30
  Plant response rating, Oilseed Rape: 0
Oilseed rape; 62 g ai/ha
  Plant response rating: 50
  Plant response rating, Oilseed Rape: 10
Oilseed rape; 125 g ai/ha
  Plant response rating: 45
  Plant response rating, Oilseed Rape: 10
Oilseed rape; 250 g ai/ha
  Plant response rating: 60
  Plant response rating, Oilseed Rape: 30
kochia; Postemergence, 31 g ai/ha
  Plant response rating: 65
kochia; Postemergence, 62 g ai/ha
  Plant response rating: 75
kochia; Postemergence, 125 g ai/ha
  Plant response rating: 70
kochia; Postemergence, 250 g ai/ha
  Plant response rating: 75
kochia; Preemergence, 62 g ai/ha
  Plant response rating, Kochia: 35
kochia; Preemergence, 31 g ai/ha
  Plant response rating, Kochia: 15
kochia; Preemergence, 125 g ai/ha
  Plant response rating: 70
kochia; Preemergence, 250 g ai/ha
  Plant response rating: 75

## O=C1NCCC1C(=O)N(c1ccc(F)c(F)c1)c1ccccc1F (stereo not shown) [Compound 5, N-(3,4-difluorophenyl)-N-(2-fluorophenyl)-2-oxo-3-pyrrolidinecarboxamide]
sunflower; 62 g ai/ha, scale 0 to 100
  Plant response rating, Sunflower: 0
sunflower; [1]
  Plant response rating, Sunflower: 0

## O=C1NCC(c2ccc(Cl)c(F)c2)C1C(=O)Nc1cccc(F)c1F (stereo not shown) [Compound 52]
chamomile; Postemergence, 16 g ai/ha
  Plant response rating: 0
chamomile; Postemergence, 31 g ai/ha
  Plant response rating: 0
chamomile; Postemergence, 62 g ai/ha
  Plant response rating: 0
chamomile; Postemergence, 125 g ai/ha
  Plant response rating: 20
chamomile; Postemergence, 250 g ai/ha
  Plant response rating: 20
chamomile; Preemergence, 62 g ai/ha
  Plant response rating, Chamomile: 75
chamomile; Preemergence, 16 g ai/ha
  Plant response rating, Chamomile: 20
chamomile; Preemergence, 31 g ai/ha
  Plant response rating, Chamomile: 20
chamomile; Preemergence, 125 g ai/ha
  Plant response rating: 75
chamomile; Preemergence, 250 g ai/ha
  Plant response rating: 80
Oilseed rape; 16 g ai/ha
  Plant response rating: 0
  Plant response rating, Oilseed Rape: 0
Oilseed rape; 31 g ai/ha
  Plant response rating: 0
  Plant response rating, Oilseed Rape: 0
Oilseed rape; 62 g ai/ha
  Plant response rating: 0
  Plant response rating, Oilseed Rape: 0
Oilseed rape; 125 g ai/ha
  Plant response rating: 10
  Plant response rating, Oilseed Rape: 10
Oilseed rape; 250 g ai/ha
  Plant response rating: 25
  Plant response rating, Oilseed Rape: 10
kochia; Postemergence, 16 g ai/ha
  Plant response rating: 0
kochia; Postemergence, 31 g ai/ha
  Plant response rating: 0
kochia; Postemergence, 62 g ai/ha
  Plant response rating: 20
kochia; Postemergence, 125 g ai/ha
  Plant response rating: 25
kochia; Postemergence, 250 g ai/ha
  Plant response rating: 35
kochia; Preemergence, 62 g ai/ha
  Plant response rating, Kochia: 20
kochia; Preemergence, 16 g ai/ha
  Plant response rating, Kochia: 0
kochia; Preemergence, 31 g ai/ha
  Plant response rating, Kochia: 20
kochia; Preemergence, 125 g ai/ha
  Plant response rating: 20
kochia; Preemergence, 250 g ai/ha
  Plant response rating: 40
sunflower; 62 g ai/ha, scale 0 to 100
  Plant response rating, Sunflower: 0
sunflower; [1]
  Plant response rating, Sunflower: 0

## O=C1NCC(c2cccc(OC(F)(F)F)c2)C1C(=O)Nc1ccccc1F (stereo not shown) [Compound 69]
sunflower; 31 g ai/ha, scale 0 to 100, 0 is no effect and 100 is complete control
  Sunflower plant response rating: 10
sunflower; 62 g ai/ha, scale 0 to 100
  Plant response rating, Sunflower: 10
sunflower; [1]
  Plant response rating, Sunflower: 10
sunflower; 250 g ai/ha
  Plant response rating (scale of 0 to 100), Sunflower: 15

## O=C1NCC(c2ccc(C(F)(F)F)cc2)C1C(=O)Nc1cccc(F)c1F (racemic) [Compound 202]
chamomile; Postemergence, 31 g ai/ha
  Plant response rating: 5
chamomile; Postemergence, 62 g ai/ha
  Plant response rating: 60
chamomile; Postemergence, 125 g ai/ha
  Plant response rating: 65
chamomile; Postemergence, 250 g ai/ha
  Plant response rating: 60
chamomile; Preemergence, 62 g ai/ha
  Plant response rating, Chamomile: 65
chamomile; Preemergence, 31 g ai/ha
  Plant response rating, Chamomile: 60
chamomile; Preemergence, 125 g ai/ha
  Plant response rating: 75
chamomile; Preemergence, 250 g ai/ha
  Plant response rating: 100
barnyardgrass; 31 g ai/ha
  Plant response rating, Barnyardgrass: 40
barnyardgrass; 62 g ai/ha
  Plant response rating, Barnyardgrass: 80
barnyardgrass; 125 g ai/ha
  Plant response rating, Barnyardgrass: 85
barnyardgrass; 250 g ai/ha
  Plant response rating, Barnyardgrass: 98
morningglory; 31 g ai/ha
  Plant response rating, Morningglory: 0
morningglory; 62 g ai/ha
  Plant response rating, Morningglory: 0
morningglory; 125 g ai/ha
  Plant response rating, Morningglory: 0
morningglory; 250 g ai/ha
  Plant response rating, Morningglory: 30
Oilseed rape; 31 g ai/ha
  Plant response rating: 60
  Plant response rating, Oilseed Rape: 0
Oilseed rape; 62 g ai/ha
  Plant response rating: 70
  Plant response rating, Oilseed Rape: 35
Oilseed rape; 125 g ai/ha
  Plant response rating: 60
  Plant response rating, Oilseed Rape: 45
Oilseed rape; 250 g ai/ha
  Plant response rating: 55
  Plant response rating, Oilseed Rape: 75
kochia; Postemergence, 31 g ai/ha
  Plant response rating: 70
kochia; Postemergence, 62 g ai/ha
  Plant response rating: 70
kochia; Postemergence, 125 g ai/ha
  Plant response rating: 75
kochia; Postemergence, 250 g ai/ha
  Plant response rating: 75
kochia; Preemergence, 62 g ai/ha
  Plant response rating, Kochia: 85
kochia; Preemergence, 31 g ai/ha
  Plant response rating, Kochia: 85
kochia; Preemergence, 125 g ai/ha
  Plant response rating: 85
kochia; Preemergence, 250 g ai/ha
  Plant response rating: 85
